From ChEMBL document CHEMBL1135523, “(4R,5S)/(4S,5R)-4,5-Bis(4-hydroxyphenyl)-2-imidazolines: ligands for the estrogen receptor with a novel binding mode” (J Med Chem, 2002)
pEC50: −log10 of the molar value.

Experiments:
[1] = target: Estrogen receptor (Bos taurus) (UniProt Q9XSB5+P49884); test: Displacement of 17-beta-[3H]-estradiol from Estrogen receptor of calf uterine cytosol at 20 uM; type: protein assay
Estrogen receptor = target: T1, Estrogen receptor (Homo sapiens, UniProt P03372); test: Agonist activity in transcriptional activation assay in MCF-7-2a cells compared to estradiol E2; type: functional, cell-based
T1 sequence (P03372 whole entry): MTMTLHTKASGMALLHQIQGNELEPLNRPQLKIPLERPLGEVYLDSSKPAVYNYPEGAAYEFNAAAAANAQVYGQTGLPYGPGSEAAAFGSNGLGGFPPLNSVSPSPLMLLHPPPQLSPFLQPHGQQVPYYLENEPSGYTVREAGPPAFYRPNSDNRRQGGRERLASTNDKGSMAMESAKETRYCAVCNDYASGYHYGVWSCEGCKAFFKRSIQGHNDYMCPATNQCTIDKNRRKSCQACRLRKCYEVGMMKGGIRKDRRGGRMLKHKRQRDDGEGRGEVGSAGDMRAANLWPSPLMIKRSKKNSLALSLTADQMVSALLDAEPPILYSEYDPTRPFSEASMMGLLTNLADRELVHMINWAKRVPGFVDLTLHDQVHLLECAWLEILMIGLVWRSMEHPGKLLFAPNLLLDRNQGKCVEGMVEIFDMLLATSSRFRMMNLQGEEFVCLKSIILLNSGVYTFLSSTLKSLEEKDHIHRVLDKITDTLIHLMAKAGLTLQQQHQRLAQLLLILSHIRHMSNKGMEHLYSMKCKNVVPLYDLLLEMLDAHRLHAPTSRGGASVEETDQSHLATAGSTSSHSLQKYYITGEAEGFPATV

Row | Structure (SMILES) | Control [1] | pEC50 (Estrogen receptor)
1 | Oc1ccc([C@H]2N=CN[C@H]2c2ccc(O)cc2I)c(I)c1 | 42.9% | 5.74
2 | Cc1cc(O)ccc1[C@H]1N=CN[C@H]1c1ccc(O)cc1C | 0% | 
3 | Oc1ccc([C@H]2NC=N[C@H]2c2ccc(O)cc2Cl)c(Cl)c1 | 44% | 6.42
4 | Oc1ccc([C@H]2N=CN[C@H]2c2ccc(O)cc2)cc1 | 1.7% | 
5 | Oc1ccc([C@H]2N=CN[C@H]2c2ccc(O)cc2F)c(F)c1 | 20.9% | 

Next, values leading:

Row | Control [1] | pEC50 (Estrogen receptor) | Structure (SMILES)
6 | 40.1% | 6.21 | Oc1ccc([C@@H]2N=CN[C@@H]2c2c(Cl)cc(O)cc2Cl)c(F)c1
7 | 70.3% | 7.19 | Oc1ccc([C@@H]2N=CN[C@@H]2c2c(Cl)cc(O)cc2Cl)c(Cl)c1
